Experimental data published in patent US12569477B2, “Compositions for synergistically enhancing mitochondrial function” (MITOCHOLINE LTD, priority 2017, dated 2026).

Tests used:
[1] = test system: cortical neurons and glial cells; experiment: ATP levels in mixed primary cultures of cortical neurons and glial cells (AT1.03 probe, confocal microscopy); settings: same treatments as ATP, control 0
Description: Mixed primary cultures of cortical neurons and glial cells were prepared from mouse pups 1-3 days postpartum, as described by Vaarmann A. et al., 2010 (Cell Calcium 2010, 48(2-3):176-82). For measurements of ATP, the cells at 14-21 DIV were transfected for 24 h with the ATP sensing probe AT1.03 (as described in Imamura H et al., PNAS 2009, 106(37):15651-15656) using Lipofectamine 2000 according to the manufacturer's instructions. […] Then, ATP levels in cells were measured using confocal microscopy. […] All data presented were obtained from at least 5 coverslips and 2-3 different cell preparations.
Mean of ATP levels in non-treated cells (control) was accepted for 100%. Effects of the treatments on ATP levels in cells (ΔATP) were calculated by formula: ΔATP=ATPtreat−ATPcontrol, wherein ATPtreat is ATP level in treated cells and ATPcontrol is ATP levels in control cells.

[2] = test system: whole-brain ATP levels; settings: for ATP, % (ATP levels in the brain at 15th min after ischemia onset, in percent to baseline): male rats, 10 mg/kg for 7 days, global ischemia, mean±SEM, baseline 100%, saline 35.3 ± 3.0
Description: Then global ischemia was induced in rats by cardiac arrest under anesthesia and whole-brain ATP levels were measured by 31P NMR in vivo for 15 min. Results are presented in Table 3 as mean±SEM ATP levels in the brain at 15th min after ischemia onset, in percent to baseline (accepted for 100%).

[3] = test system: primary neurons and astrocytes; experiment: Mitochondrial NADH autofluorescence in primary neurons and astrocytes; assay type: cell-based, mouse; settings: for NADH autofluorescence, % of control: after 20 min of incubation; for NADH autofluorescence, % of control / Initial change of mitochondrial NADH level on application: DiSU 50 μM, NAM 20 μM, sodium succinate 50 μM
Description: Mixed cultures of cortical neurons and glial cells were prepared as described, from mouse pups 1-3 days postpartum. Neurons were easily distinguishable from glia: they appeared phase bright, had smooth rounded somata and distinct processes, and positioned just above the focal plane of the glial layer. Cells were used at 14-21 DIV. Experiments were conducted in HBSS solution at the 37° C.
To estimate the mitochondrial pool of NADH, maximal activation of mitochondrial respiration is induced by uncoupler FCCP (mitochondrial NADH is taken 0) followed by inhibition of respiration by NaCN (NADH is maximal due to inhibition of consumption). This set up provides evaluation of several characteristics: the rate of NADH production in TCA cycle (recovery of the NADH signal after NaCN), total mitochondrial pool and redox index.

[4] = test system: primary myotubes; experiment: Mitochondrial membrane potential (TMRM) in primary myotubes; assay type: cell-based, rat; settings: DiSU 50 μM, NAM 20 μM, or both (2:1:0.4); n=67 myotubes
Description: (§1) Primary Skeletal Muscle Cell culture. Primary myotube cells were obtained from postnatal day 0-2 (P0-P2) rat pups which were sacrificed by decapitation. Briefly, the rats were immersed in 70% ethanol and the hind-limbs removed under a dissection microscope, in dissection solution containing Dulbecco's Phosphate Buffered Saline (PBS) with penicillin streptomycin (5000 units/ml) and Amphotericin B (2.5 mg/L). The tissues were then digested in 0.2% collagenase solution at 37° C. for 30-40 minutes.
The reaction was stopped by adding 2-3 ml fetal bovine serum (FBS), and the tissue suspension was centrifuged at 2010 rpm (700 g) for 10 minutes. The cell pellet was resuspended in pre-warmed growth medium, Dulbecco's modified Eagle's medium (DMEM), containing 20% FBS, 100 i.u./ml penicillin and 200 i.u./ml streptomycin], and plated on 22 mm coverslips that were pre-coated with 0.2% gelatin for 1 hour at 37° C. […]
Tetramethyl rhodamine methyl ester (TMRM) was used to study the changes of the mitochondrial membrane potential (Δψm). […] TMRM fluorescence was excited at 543 nm (HeNe laser), and emission was measured at >560 nm. […] Therefore, the changes in potential are reflected by changes in fluorescence intensity within the mitochondria which is measured after thresholding out the background signal from the cytosol to give a mean value per pixel within the mitochondrial population of a cell. […]

[5] = test system: primary myotubes; experiment: Autophagy/mitophagy: co-localization of mitochondria and lysosomes in primary myotubes; assay type: cell-based, rat; settings: 50 μM DiSU+20 μM NAM or single components in corresponding molar amounts
Text: The upper panels show confocal images of cells loaded with two dyes MitoTracker Green (labeling mitochondria) and LysoTracker Red (labeling lysosomes); the lower panel: quotative evaluation of co-localization of mitochondria and lysosomes in cells. […] Values are presented as mean±SD. **P<0.001. Independent experiments (n) are indicated as dots in the scatter plot.

[6] = test system: primary myotubes; experiment: Mitochondrial NADH redox index and NADH pool in myotube cultures; assay type: cell-based, rat; settings: blend 1: 100 μM DiSU+40 μM NAM; blend 2: 50 μM DiSU+20 μM NAM; choline (100, succinate (50 μM), NAM (50 μM)); FIG. 1B
Description: as §1
The reaction was stopped by adding 2-3 ml fetal bovine serum (FBS), and the tissue suspension was centrifuged at 2010 rpm (700 g) for 10 minutes. The cell pellet was resuspended in pre-warmed growth medium, Dulbecco's modified Eagle's medium (DMEM), containing 20% FBS, 100 i.u./ml penicillin and 200 i.u./ml streptomycin], and plated on 22 mm coverslips that were pre-coated with 0.2% gelatin for 1 hour at 37° C. Cells were then cultured in a humidified CO2 incubator (5% CO2 in air) at 37° C. After 2 or 3 days, the medium was changed to a low-serum medium (DMEM containing 10% FBS without antibiotics), and was subsequently renewed every 3 or 4 days. All experiments were performed in vitro between days 2 and 11 in culture when spindle-shaped myoblasts had proliferated and aligned themselves for fusion (˜70% confluency).

Compound | ATP, % (ATP levels in the brain at 15th min after ischemia onset, in percent to baseline) [2] | NADH autofluorescence, % of control [3] | Initial change of mitochondrial NADH level on application [3] | Increase in TMRM fluorescence (mitochondrial membrane potential) compared to control [4] | Autophagy (co-localization of mitochondria and lysosomes) [5] | further results
O=C(O)c1cccnc1 [Nicotinic acid, nicotinic acid] |  |  |  |  |  | ΔATP, % (ATPtreat−ATPcontrol) [1]: +1%
C[N+](C)(C)CCO.[Cl-] [Choline chloride, choline chloride] | 36.8 ± 5.0% |  |  |  |  | 
O=C([O-])CCC(=O)[O-].[K+].[K+] [Dipotassium succinate, dipotassium succinate] | 40.9 ± 9.0% |  |  |  |  | 
choline succinate salt (2:1) [DiSU] | 55.5 ± 4.8 % | 123±6 % of control | only slight initial decrease | increase | significantly increase | ATP levels in the brain under normoxia ([2]; rats, normoxia): did not affect
O=C([O-])CCC(=O)[O-].[Na+].[Na+] [Sodium succinate, sodium succinate] | 34.3 ± 2.4% | not detected a noticeable increase | fast and significant decrease |  | not | NADH redox index [6]: did not induce significant changes
NC(=O)c1cccnc1 [NAM, nicotinamide] |  |  |  | increase | not | Mitochondrial NADH pool, % of control ([3]; NAM 20 μM alone, short term (15-20 min)): 116±8 % of control
